Results reported in PMC12866179, “Oxidized MIF is an Alzheimer’s disease drug target relaying external risk factors to tau pathology” (Cell Reports Medicine, 2025).

Test system: HSV-1
Experiment: Plaque assay of HSV-1-infected SH-SY5Y-tau-P301S control and MIF-knockdown cells
Type: cell-based, HSV-1 KOS strain
Procedure: Virus titer determination was carried out in 25-cm^2 flasks or 6-well plates with confluent Vero cells. The virus stock was serially diluted in Medium 199. 1 mL of each of the dilutions was added to the Vero cells in duplicates and incubated for 2h. Then the inoculum was aspirated and DMEM supplemented with 5% NBCS and 7.5 μg/mL human immunoglobulin (Sigma) was added. After two days the cells were washed twice with PBS and fixed with MeOH for 5 min at RT. Then 1:10 diluted KaryoMax Giemsa stain solution (Gibco) was added to the cells and incubated for 20 min at RT. Following washing with water the plaques were counted under the microscope and the titer was calculated.
4x10^5 Vero cells, 8x10^5 SH-SY5Y or 2x10^6 differentiated LUHMES (differentiation day 6) cells were seeded into 12-well plates. After 24h the cells were treated with compounds (as indicated in the figures) and after 1h they were infected with HSV-1 applying MOIs as described in the figures. After 20h (or at indicated time points) cells were either washed twice with PBS, then lysed in cold PBS/1% NP40 including the cOmplete EDTA-free protease inhibitor cocktail (Roche) and phosphatase inhibitor cocktail (Sigma) or virus was released by freeze-thawing and ultrasonic treatment for analysis in viral plaque assay (see above).
[…] Two-wa y ANOVA (Sidak´s post-hoc) […]

SMILES: CCc1cc(N2CCCC2)cc2[s+]c3cc(N4CCCC4)cc(C)c3nc12.[I-] [PAV-174, 3,7-Di(pyrrolidine-1-yl) 1-ethyl-9-methyl-phenothiazin-5-ium iodide]
- HSV-1 titer-lowering effect in MIF-knockdown cells: did not exert comparable titer-lowering effects
